The text below walks through data of patent publication US4412998A, “Certain 4-(1-piperidino)-phenyl-nicotinates” (Merz & Company, priority 1979, dated 1983).

Broadly, the LD50 is the dose expected to kill half of the subjects tested. A higher LD50 goes with a less toxic substance. Broadly, the ED50 is the dose that gives a 50% effect, or the effect in half of the subjects. Low readings indicate greater potency, high ones weaker potency.

For data set [1] the following is noted: cited from earlier work; for reduction of free fatty acids (in words): test animals, low dosage between 0.5 and 30 mg/kg body weight.
Data set [2] can be described thus: Triglyceride reduction in rats on high-fat diet. Conditions: Rattus norvegicus, high fat diet 3 weeks, blood 18 hours after last dose, read-out: Triglyc. Red. in %. Format: in vivo, female Wistar rats. As for the experimental part:
(§1) Additionally, experiments on female Wistar rats were carried out. For a period of 3 weeks the animals received a special diet with a very high fat content. Starting from the second week, half the rats were treated with a dosage of 100 and 25 mg/kg body weight. After the third week blood samples were taken 18 hours after administration of the last dose. Triglyceride and cholesterol concentrations were compared with that of the untreted animals. Cholesterol and triglycerides were determined with the aid of the Boehringer enzymatic test.

The nature of data set [3]: Cholesterol reduction in rats on high-fat diet. Format: in vivo, female Wistar rats. Particulars: Rattus norvegicus, read-out: Chol. Red. in %. As for the experimental part:
as §1

A short description of data set [4]: in vivo. Particulars: rat.
The nature of data set [5]: ED50 in rat (Table 1). Format: in vivo.
Setting [6] is: 100 mg/kg, high fat diet 3 weeks, blood 18 hours after last dose.
[7] abbreviates: high fat diet 3 weeks, blood 18 hours after last dose.

In the case of `CC(C)(Oc1ccc(Cl)cc1)C(=O)OCc1cccnc1` [3-pyridyl carbinol ester of clofibric acid], the “influence on lipids (in words)” value in data set [1] (background) was “effective lipid- and cholesterol-lowering component”.

Take `OCc1cccnc1` [3-pyridyl carbinol]: the “reduction of free fatty acids (in words)” value in data set [1] is “great reduction of the free fatty acids”.

`O=C(Oc1ccc(C2CCCCC2)cc1)c1cccnc1` [Example 1, p-cyclohexylphenyl nicotinate]: the values for the inhibition in vivo at 100 mg/kg in data set [2] and in data set [3] (setting [6]) were 19% and 45%, respectively. Further, in data set [4], the LD50 is 2200 mg/kg. Also, in data set [4], the selectivity ratio was 44. The molecule further had an ED50 in data set [5] of 50 mg/kg.

On to `O=C(Oc1ccc(C23CC4CC(CC(C4)C2)C3)cc1)c1cccnc1` [Example 2, p-(1-adamantylphenyl)-nicotinate], for which the inhibition in vivo at 100 mg/kg in data set [2] stood at 47%. Further, the inhibition in vivo at 100 mg/kg in data set [3] (setting [6]) worked out at 28%. In data set [4], the LD50 came to 3200 mg/kg and the selectivity ratio is 47. Besides, the ED50 in data set [5] worked out at 68 mg/kg.

For the molecule `CC(C)(Oc1ccc(Cl)cc1)C(=O)Oc1ccc(C(=O)CC23CC4CC(CC(C4)C2)C3)cc1` [Example 3, 2-(p-chlorophenoxy)-isobutyric acid-p-(1-adamantylacetyl)-phenyl ester], the inhibition in vivo at 100 mg/kg turned out to be 35% in data set [2] and 27% in data set [3] (setting [6]).

In the case of `Cl.O=C(Oc1ccccc1C1CCCCC1)c1cccnc1` [Example 6, o-cyclohexylphenyl nicotinate hydrochloride], in data set [2], the inhibition in vivo at 25 mg/kg came out at 16%. In data set [3] (setting [7]), the inhibition in vivo at 25 mg/kg came out at 18%. Moreover, in data set [4], the LD50 amounted to 2050 mg/kg and the selectivity ratio stood at 93. For the same molecule, the ED50 in data set [5] is 22 mg/kg.

Regarding `O=C(Oc1cccc2c1CCCC2)c1cccnc1` [Example 7, 5,6,7,8-Tetrahydro-1-naphthyl-nicotinate], the inhibition in vivo at 100 mg/kg in data set [2] worked out at 18%; in data set [3] (setting [6]), 22%.

Consider `CC(C)(C)c1cc(C2CCCCC2)ccc1OC(=O)c1cccnc1` [Example 8, 2-t-butyl-4-cyclohexylphenyl nicotinate], for which the inhibition in vivo at 25 mg/kg in data set [2] was determined as 8%. The inhibition in vivo at 25 mg/kg in data set [3] (setting [7]) came out at 9%. Further, in data set [4], the LD50 was 1700 mg/kg and the selectivity ratio was found to be 56. In data set [5], the ED50 is 30 mg/kg.

As to `CC(C)(c1ccccc1)c1ccc(OC(=O)c2cccnc2)cc1` [Example 9, p-cumylphenyl nicotinate], the inhibition in vivo at 100 mg/kg in data set [2] amounted to 1%; in data set [3] (setting [6]), 24%.

As for `O=C(Oc1ccc(C(=O)c2ccc(Cl)cc2)cc1)c1cccnc1` [Example 10, p-chlorobenzoylphenyl nicotinate], the inhibition in vivo at 100 mg/kg in data set [3] (setting [6]) amounted to 29%.

In the case of `O=C(O)c1cccnc1` [Nicotinic acid, nicotinic acid, reference compound], in data set [3] (18 h), the inhibition in vivo at 100 mg/kg was found to be 7%. In addition, in data set [4], the LD50 was found to be 4000 mg/kg and the selectivity ratio turned out to be 8. Moreover, in data set [5], the ED50 is ~500 mg/kg. In data set [1] (background), the “influence on lipids (in words)” value is “act predominantly on elevated cholesterol values and free fatty acids”; the “side effects (in words)” value is given as “flush, headache, nausea, vomiting”. Also, in data set [1], the “reduction of free fatty acids (in words)” value is recorded as “great reduction of the free fatty acids”.

Turning to `CCOC(=O)C(C)(C)Oc1ccc(Cl)cc1` [clofibrate, ethyl ester of 2-(p-chlorophenoxy)-isobutyric acid, reference compound], the inhibition in vivo at 100 mg/kg in data set [2] was 8%. Further, the LD50 in data set [4] is 1500 mg/kg. In data set [5], the ED50 was ~300 mg/kg. Besides, in data set [1] (in vivo), the “cases with cholesterol (CH) in the β- and α-lipoproteins further increased” value is “about 20%”; the “fall of the initial values of triglycerides (TG) and pre-β-lipoproteins” value is listed as “up to 50%”.
